Reference: article PMC8234231, “In Vitro Inhibition of Renal OCT2 and MATE1 Secretion by Antiemetic Drugs” (International Journal of Molecular Sciences, 2021)
“Also recorded” adds a separate entry of the source. Read-outs that look alike come from different tables or passages of the source.

Tests used:
[1] = tested on: OCT2 and MATE1; assay: Inhibition of basolateral-to-apical transcellular transport of ASP+ in OCT2/MATE1 double-transfected MDCK cells (Transwell); settings: human
Experimental: (§1) Control and OCT2/MATE1-expressing MDCK cells were evaluated for protein expression of OCT2 and MATE1 using SDS-PAGE and western blotting with specific primary antibodies (OCT2, sc292622 1:500 and MATE1, sc133390 1:250, Santa Cruz Biotechnology, Santa Cruz, CA, USA), followed by an antirabbit HRP-conjugated secondary antibody (1:1000, Sigma Aldrich, St. Louis, MO, USA) and Super Signal Western Dura Extended Duration Substrate (Pierce Biotechnology, Rockford, IL, USA). Detection was performed with a FluorChem imager (ProteinSimple, Santa Clara, CA, USA). Both MDCK cell lines were seeded on 0.4 μm transwell inserts (VWR, Radnor, PA, USA) at a density of 2 × 10^5 cells/cm^2. Transport experiments were performed 3 to 5 days after seeding. The integrity of MDCK monolayers was verified by measuring transepithelial electrical resistance (TEER) >150 Ω*cm^2 using an epithelial voltohmmeter, EVOM^2 (World Precision Instruments, Sarasota, FL). Proper formation of tight junctions was also verified by measurement of passive permeability of lucifer yellow in the basolateral-to-apical (B-to-A) direction. Lucifer yellow (20 μM) was applied to the basolateral chamber for 1 h, and media were collected from the apical chamber.
(§2) After washing the cells once with Hank’s Buffered Saline Solution (HBSS) pH 7.4, transport studies were initiated after aspirating the wash buffer from both the apical and basal chambers. […] Cells were lysed with 1% Triton X-100. […] Intracellular fluorescence was normalized to total protein concentration of cell lysates from each transwell using the BCA assay. Experiments were performed in three individual Transwell inserts.

[2] = tested on: empty vector (EV) HEK293 cells; assay: ASP+ uptake in empty vector (EV) HEK293 cells in presence of inhibitors; assay type: cell-based, human; settings: ASP+ 10 μM
Source text: Media was removed and washed four times with ice-cold HBSS. Cells were lysed with 1% Triton X-100. […] Experiments were repeated three separate times, with three to four replicates in each experiment.

[3] = target: T1, human OCT2 (Homo sapiens, UniProt O15244); assay: Inhibition of ASP+ uptake in HEK293 cells overexpressing OCT2; assay type: cell-based; settings: for IC50: HEK293-OCT2, ASP+ 10 μM, 1 min, 37 °C, Avg ± SE (n = 3)
T1 construct: expressed in transfected cells; gift of Dr. Kathy Giacomini, UCSF
T1 sequence (O15244 1-555): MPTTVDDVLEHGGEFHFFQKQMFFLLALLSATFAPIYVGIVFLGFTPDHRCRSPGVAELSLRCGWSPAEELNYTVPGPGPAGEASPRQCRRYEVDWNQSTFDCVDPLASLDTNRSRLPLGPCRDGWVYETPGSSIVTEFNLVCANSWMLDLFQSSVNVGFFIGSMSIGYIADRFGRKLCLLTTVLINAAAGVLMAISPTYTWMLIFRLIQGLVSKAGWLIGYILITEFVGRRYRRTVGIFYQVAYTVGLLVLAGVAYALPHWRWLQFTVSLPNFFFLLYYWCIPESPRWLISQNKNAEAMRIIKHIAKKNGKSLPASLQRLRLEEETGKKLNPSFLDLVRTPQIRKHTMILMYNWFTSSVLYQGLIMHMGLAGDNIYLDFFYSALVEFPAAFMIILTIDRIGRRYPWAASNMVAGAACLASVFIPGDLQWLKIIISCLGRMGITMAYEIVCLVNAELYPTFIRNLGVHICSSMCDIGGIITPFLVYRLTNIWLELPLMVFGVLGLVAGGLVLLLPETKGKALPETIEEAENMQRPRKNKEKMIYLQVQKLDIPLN
Experimental: (§3) After washing once with prewarmed Hank’s Buffered Saline Solution (HBSS), cells were preincubated for 30 min at 37 °C with various 5-HT3 antagonists for OCT2 cells or in a 30 mM NH4Cl solution in HBSS at pH 6.5 for MATE1 cells for intracellular acidification. Uptake into OCT2 cells was initiated through exposure to 10 μM of fluorescent substrate ASP^+ directly in the incubation media. Uptake into MATE1 cells was initiated by application of HBSS at pH 7.4 containing 5-HT3 antagonists and 10 μM of fluorescent substrate ASP^+. […] Media was removed and washed four times with ice-cold HBSS. Cells were lysed with 1% Triton X-100. […] Intracellular fluorescence was normalized to total protein concentration of cell lysates from each well using the bicinchoninic acid (BCA) assay (Pierce Biotechnology, Rockford, IL, USA). Experiments were repeated three separate times, with three to four replicates in each experiment.
(§4) GraphPad Prism v6 (GraphPad Software, La Jolla, CA, USA) was used for statistical analysis.

[4] = tested on: human OCT2 and MATE1; assay: Intracellular accumulation of ASP+ in OCT2/MATE1 double-transfected MDCK cells; assay type: cell-based; settings: 120 min; for effect on intracellular ASP+ accumulation: inhibitor 0.5–20 μM, ASP+ 25 μM; for increase in intracellular ASP+ accumulation: inhibitor 20 μM (highest concentration)
Experimental: Cells were incubated with 5-HT3 antagonists in the apical chamber in HBSS pH 6.0 and 5-HT3 antagonists with ASP^+ (25 μM) in the basolateral chamber in HBSS pH 7.4 and incubated at 37 °C for 120 min. To measure time-dependent transcellular transport, an aliquot of the incubation medium (100 μL) from the apical chamber (receiving chamber) was collected at 40, 60, 90, and 120 min and replaced with an equal volume of fresh buffer containing 5-HT3 antagonist or the positive control chemical at the original concentration. […] Cells were lysed with 1% Triton X-100. […] Experiments were performed in three individual Transwell inserts.

[5] = tested on: human OCT2 and MATE1; assay: Inhibition of basolateral-to-apical transcellular transport of ASP+ in OCT2/MATE1 double-transfected MDCK cells (Transwell); settings: for effect on B-to-A transport of ASP+: inhibitor 0.5–20 μM, 40–120 min, ASP+ 25 μM; for effect on transcellular transport of ASP+: inhibitor 10 and 20 μM
Experimental: as §1, §2

[6] = no reference given, cited from earlier work; for metabolized by cytochrome P450 enzymes in the liver: range for the named drugs together
[7] = target: T2, MATE1 (Homo sapiens, UniProt Q96FL8); assay: Inhibition of ASP+ uptake in HEK293 cells overexpressing MATE1; assay type: cell-based; settings: for IC50: HEK293-MATE1, ASP+ 10 μM, 1 min, 37 °C, Avg ± SE (n = 3)
T2 construct: expressed in transfected cells; gift of Dr. Kathy Giacomini, UCSF
T2 sequence (Q96FL8 1-570): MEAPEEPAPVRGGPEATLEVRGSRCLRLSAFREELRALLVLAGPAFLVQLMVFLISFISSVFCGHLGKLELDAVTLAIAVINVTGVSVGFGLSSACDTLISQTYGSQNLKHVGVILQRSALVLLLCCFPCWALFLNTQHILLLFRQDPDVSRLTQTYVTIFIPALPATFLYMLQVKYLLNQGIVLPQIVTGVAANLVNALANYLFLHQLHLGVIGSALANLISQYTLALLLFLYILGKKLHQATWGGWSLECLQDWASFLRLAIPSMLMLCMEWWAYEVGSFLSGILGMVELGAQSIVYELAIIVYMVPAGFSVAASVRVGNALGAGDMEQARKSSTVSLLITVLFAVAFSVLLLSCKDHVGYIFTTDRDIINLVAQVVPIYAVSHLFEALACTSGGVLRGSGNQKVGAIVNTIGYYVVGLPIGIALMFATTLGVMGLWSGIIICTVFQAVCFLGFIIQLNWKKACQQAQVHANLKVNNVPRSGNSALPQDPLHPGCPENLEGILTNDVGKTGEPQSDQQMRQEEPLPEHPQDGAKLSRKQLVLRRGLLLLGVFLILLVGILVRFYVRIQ
Experimental: as §3, §4

[8] = probe ASP+ (25 μM, basolateral chamber)

Compound	IC50 [3]	IC50 [7]	effect on ASP+ uptake in EV cells [2]	effect on B-to-A transport of ASP+ [5]	effect on transcellular transport of ASP+ [5]	half-life [6]	metabolized by cytochrome P450 enzymes in the liver [6]	further results
O=C1c2cccc3c2[C@H](CCC3)CN1[C@@H]1CN2CCC1CC2 [Palonosetron]	2.2 ± 0.3 µM	1.6 ± 0.6 µM	stimulated additional ASP^+ uptake	concentration-dependent inhibition of ASP^+ secretion, which was significant at 10 and 20 μM for all time-points	similarly reduced the transcellular transport of ASP^+	40 h	48–95%	effect on intracellular ASP+ accumulation [4]: No significant changes in ASP^+ accumulation
C[C@@H](O[C@H]1OCCN(Cc2n[nH]c(=O)[nH]2)[C@H]1c1ccc(F)cc1)c1cc(C(F)(F)F)cc(C(F)(F)F)c1 [aprepitant]	–	–	–	–	–	–	–	effect on ASP+ uptake in MATE1-expressing HEK293 cells ([7]; ASP+ 10 μM): had no impact on ASP^+ uptake; effect on ASP+ uptake in OCT2-expressing HEK293 cells ([3]; ASP+ 10 μM): had no impact on ASP^+ uptake
CCN(CC)CCNC(=O)c1cc(Cl)c(N)cc1OC [metoclopramide]	–	–	–	–	–	–	–	inhibition of MATE1 activity [7]: None of these drugs inhibited MATE1 activity; effect on ASP+ uptake in OCT2-expressing HEK293 cells [3]: inhibited OCT2 activity across a range of concentrations
CN1CCN(CCCN2c3ccccc3Sc3ccc(Cl)cc32)CC1 [prochlorperazine]	–	–	–	–	–	–	–	inhibition of MATE1 activity ([7]; inhibitor 10 μM, HEK293-MATE1 (data not shown)): None of these drugs inhibited MATE1 activity; effect on ASP+ uptake in OCT2-expressing HEK293 cells ([3]; ASP+ 10 μM): inhibited OCT2 activity across a range of concentrations
CCc1nc(N)nc(N)c1-c1ccc(Cl)cc1 [pyrimethamine]	–	–	–	–	–	–	–	inhibition at 120 min, 1 μM [1]: 36%; increase in intracellular accumulation of ASP+ ([4]; inhibitor 1 μM): 1.3 fold

The next lines start with results.

IC50 [3]	IC50 [7]	Compound	effect on ASP+ uptake in EV cells [2]	effect on B-to-A transport of ASP+ [5]	effect on transcellular transport of ASP+ [5]	half-life [6]	metabolized by cytochrome P450 enzymes in the liver [6]	further results
24.5 ± 4 µM	–	CN/C(=N/CCSCc1nc[nH]c1C)NC#N [Cimetidine]	had no influence on ASP^+ uptake	–	–	–	–	inhibition at 120 min, 5 μM [1, 8]: 18%; inhibition at 120 min, 50 μM [1, 8]: 40%; increase in intracellular accumulation of ASP+ ([4]; cimetidine concentration not stated in the sentence (5 and 50 μM tested)): 1.8 fold
85.4 ± 3.4 µM	27.4 ± 2.8 µM	O=C(O[C@@H]1C[C@@H]2C[C@H]3C[C@H](C1)N2CC3=O)c1c[nH]c2ccccc12 [Dolasetron]	–	at 10 and 20 μM inhibited ASP^+ transport at 120 min only	similarly reduced the transcellular transport of ASP^+	8 to 9 h	–	effect on intracellular ASP+ accumulation [4]: No significant changes in ASP^+ accumulation
3.8 ± 1.6 µM	5 ± 1.1 µM	CN1C2CCCC1CC(NC(=O)c1nn(C)c3ccccc13)C2 (stereo not drawn) [Granisetron]	caused a small decrease in ASP^+ accumulation	did not alter the B-to-A transport of ASP^+ at any concentration tested; also recorded: did not exhibit any significant inhibition	–	8 to 9 h	48–95%	increase in intracellular ASP+ accumulation [4]: 1.3 fold
31.3 ± 6.6 µM	1.6 ± 0.9 µM	CN1[C@@H]2CC[C@H]1C[C@@H](OC(=O)c1c[nH]c3ccccc13)C2 [Tropisetron]	stimulated additional ASP^+ uptake	concentration-dependent inhibition of ASP^+ secretion, which was significant at 10 and 20 μM for all time-points	similarly reduced the transcellular transport of ASP^+	< 6 h	48–95%	increase in intracellular ASP+ accumulation [4]: 1.5 fold
